Source: patent publication US4282243A, “Optical isomers of 4-amino-N-(1-cyclohexyl-3-pyrrolidinyl)-N-methylbenzamide” (A. H. Robins Company, Inc., priority 1980, dated 1981)

What was measured:
Format in all cases: in vivo
[1] = Cataleptic effects in rat, procedure based on Tedeschi et al.; settings: in vivo; rat, IP; fumarate salts, expressed as free base; read-out: ED50, cataleptic effect
Description: (§1) The procedure used for determining cataleptic effects of the fumarate salts was based on that of Tedeschi et al., Arch. Int. Pharmacodyn.

dog = experiment: Anti-emetic activity in dogs, modified anti-apomorphine method; settings: fumarate salts; for ED50: Canis lupus familiaris, sc, expressed as free base, read-out: ED50 (95% Confidence Limits), anti-apomorphine
Experimental: The anti-emetic properties of the fumarate salts were established in dogs using a modification of the anti-apomorphine methods of Chen and Ensor, J. Pharmac. Exp. Ther. 98, 245-250 (1950) and of Leonard et al., J. Pharmac. Exp. Ther. 154, 339-345 (1966) and the ED50 was calculated by the method of Goldstein (Biostatistics, An Introductory Text, pg. 156-161, The MacMillan Co., N. Y., 1964).

rat = experiment: Cataleptic effects in rat, procedure based on Tedeschi et al.; settings: for cataleptic effect (NSE = no significant cataleptic effect in doses up to indicated amount): rat, fumarate salts, expressed as free base
Description: as §1

Row | Structure (SMILES) | ED50 [1] | ED50 (dog) | cataleptic properties (rat; general statement) | cataleptic effect (NSE = no significant cataleptic effect in doses up to indicated amount) (rat; IP) | cataleptic effect (NSE = no significant cataleptic effect in doses up to indicated amount) (rat; PO) | anti-apomorphine activity (words in the ED50 column) (dog; s.c.)
1 | CN(C(=O)c1ccc(N)cc1)C1CCN(C2CCCCC2)C1 (single isomer, unassigned; (-)) [(-)-isomer, (-)-4-amino-N-(1-cyclohexyl-3-pyrrolidinyl)-N-methylbenzamide] | > 100 mg/kg | 0.09 mg/kg | – | – | – | –
2 | CN(C(=O)c1ccc(N)cc1)C1CCN(C2CCCCC2)C1 (racemic) [± racemate, 4-amino-N-(1-cyclohexyl-3-pyrrolidinyl)-N-methylbenzamide] | – | 0.25 mg/kg | notable absence of cataleptic properties | NSE to 100 | NSE to 200 | –
3 | CN(C(=O)c1ccc(N)cc1)C1CCN(C2CCCCC2)C1 (single isomer, unassigned; (+)) [(+)-isomer, (+)-4-amino-N-(1-cyclohexyl-3-pyrrolidinyl)-N-methylbenzamide] | – | – | – | NSE to 100 | NSE to 200 | no significant
